Experimental data from patent publication US20250099448A1, “HETEROCYCLIC COMPOUNDS” (Hoffmann-La Roche Inc., priority 2022, published 2025).

Molecular target: T1, MAGL protein (Homo sapiens, UniProt Q99685)
T1 sequence (Q99685 1-303): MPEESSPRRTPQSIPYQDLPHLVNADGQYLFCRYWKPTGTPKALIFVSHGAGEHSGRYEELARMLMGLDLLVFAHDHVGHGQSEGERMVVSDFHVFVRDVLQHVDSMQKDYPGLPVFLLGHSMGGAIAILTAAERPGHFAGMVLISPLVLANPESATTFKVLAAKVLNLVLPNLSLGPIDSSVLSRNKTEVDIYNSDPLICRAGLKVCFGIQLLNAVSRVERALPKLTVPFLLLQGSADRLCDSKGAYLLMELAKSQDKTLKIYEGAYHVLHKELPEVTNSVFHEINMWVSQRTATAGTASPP
Assay: 2-AG assay: MAGL inhibitory activity by hydrolysis of 2-arachidonoylglycerol to arachidonic acid, followed by mass spectrometry
Assay type: biochemical
Conditions: 8 μM 2-arachidonoylglycerol, 15 min preincubation, 30 min reaction at RT, RapidFire MS readout
Procedure: Compounds of formula (I) were profiled for MAGL inhibitory activity by determining the enzymatic activity by following the hydrolysis of the natural substrate 2-arachidonoylglycerol (2-AG) resulting in arachidonic acid, which can be followed by mass spectrometry. This assay is hereinafter abbreviated “2-AG assay”. The 2-AG assay was carried out in 384 well polypropylene assay plates. Compound dilutions were made in 100% DMSO in a polypropylene plate in 3-fold dilution steps to give a final concentration range in the assay from 12.5 μM to […]. Compound dilutions were added to MAGL protein in assay buffer (50 mM TRIS, 1 mM EDTA, 0.01% (v/v) Tween-20, 2.5% (v/v) DMSO). After shaking, the plate was incubated for 15 min at RT. To start the reaction, 2-arachidonoylglycerol in assay buffer was added. The final concentrations in the assay was […] for MAGL protein and 8 μM 2-arachidonoylglyerol. After shaking and 30 min incubation at RT, the reaction was quenched by the addition of two assay volumes of acetonitrile containing 4 μM of d8-arachidonic acid. The amount of arachidonic acid formed was traced by an online SPE system (Agilent Rapidfire) coupled to a triple quadrupole mass spectrometer. A C18 SPE cartridge (Agilent G9205A) was used in an acetonitrile/water liquid setup. The mass spectrometer was operated in negative electrospray mode following the mass transitions 303.1→259.1 for arachidonic acid and 311.1→267.0 for d8-arachidonic acid. The activity of the compounds was calculated based on the ratio of intensities [arachidonic acid/d8-arachidonic acid].

Structure (SMILES) | IC50
CS(=O)(=O)c1ccc(OCC2CCN(C(=O)N3CC4(CC(c5nc(C6(O)CC6)n[nH]5)C4)C3)CC2)cc1C(F)(F)F [Example 922] | 326 nM
Cc1cc(C(F)F)n(CC2CC3(C2)CN(C(=O)N2CC4(CC(c5nc(C6CC6)n[nH]5)C4)C2)C3)n1 [compound 883] | 0.39 nM
O=C(N1CC(c2ccc(N3CCC(C(F)(F)F)CC3=O)cc2)C1)N1CC2(CC(c3nnc(C4CC4)[nH]3)C2)C1 (single isomer, unassigned) [compound 279] | 5.16 nM
O=C(N1CC2(CC(Oc3cnc(C(F)(F)F)cn3)C2)C1)N1CC2(CC(c3nnc(C4(O)CC4)[nH]3)C2)C1 [compound 76] | 38 nM
O=C(N1CC2(CC(c3nc(C4(O)CC4)n[nH]3)C2)C1)N1CC2(CC[C@H](Cc3ccc(S(=O)(=O)C(F)(F)F)cc3)C2)C1 [compound 653] | 1 nM
O=C(N1CC2(CC(Cn3cc(C(F)(F)F)ccc3=O)C2)C1)N1CC2(CC(c3nc(C4CC4)n[nH]3)C2)C1 [compound 406] | 1.75 nM
O=C(N1CC2(CC(Cc3ccc(F)cc3C(F)(F)F)C2)C1)N1CC2(CC(c3nnc(C4CC4)[nH]3)C2)C1 [compound 33] | 0.01 nM
CS(=O)(=O)c1cc(C(F)(F)F)ccc1CC1CC2(C1)CN(C(=O)N1CC3(CC(c4nc(C5COC5)n[nH]4)C3)C1)C2 [compound 827] | 21.2 nM
O=C(N1CC2(CC(c3nc(C4CC(F)(F)C4)n[nH]3)C2)C1)N1CC2(CN(Cc3cc(C(F)(F)F)no3)C2)C1 [compound 758] | 145 nM
O=C(N1CC(C23CC(S(=O)(=O)CC4(C(F)(F)F)CC4)(C2)C3)C1)N1CC2(CC(c3nc(C4CC4)n[nH]3)C2)C1 [compound 528] | 497 nM
O=C(N1CC(n2cc(OCC(F)(F)F)cn2)C1)N1CC2(CC(c3nnc(C4CC4)[nH]3)C2)C1 [compound 207] | 60.3 nM
CC(C)(C)CS(=O)(=O)N1CC2(CN(C(=O)N3CC4(CC(c5nnc(C6CC6)[nH]5)C4)C3)C2)C1 [compound 212] | 58.1 nM
N#Cc1ccc(CC2CC3(C2)CN(C(=O)N2CC4(CC(c5nc(C6CC6)n[nH]5)C4)C2)C3)c(F)c1 [compound 772] | 0.05 nM
CS(=O)(=O)c1ccc(CC2CC3(C2)CN(C(=O)N2CC4(CC(c5nc(C6COC6)n[nH]5)C4)C2)C3)cc1 [compound 817] | 180 nM
O=C(N1CC(C23CC(Cn4cc(C(F)(F)F)cn4)(C2)C3)C1)N1CC2(CC(c3nc(C4CC4)n[nH]3)C2)C1 [compound 949] | 0.16 nM
O=C(N1CC2(CC(Cn3cc(CC(F)(F)F)cn3)C2)C1)N1CC2(CC(c3nc(C4CC4)n[nH]3)C2)C1 [compound 690] | 0.61 nM
O=C(NC1(C(F)(F)F)CC1)C1CC2(C1)CN(C(=O)N1CC3(CC(c4nnc(C5CC5)[nH]4)C3)C1)C2 [compound 72] | 157 nM
O=C(N1CC2(CC(c3nnc(C4CC4)[nH]3)C2)C1)N1CC2(C1)CN(c1ccc(C(F)(F)F)cn1)C2 [compound 682] | 38.4 nM
N#Cc1cc(CC2CC3(C2)CN(C(=O)N2CC4(CC(c5nnc(C6CC6)[nH]5)C4)C2)C3)ccc1C(F)(F)F [compound 26] | 0.02 nM
O=C(N1CC2(CC(c3nc(C4CC4)n[nH]3)C2)C1)N1CC2(CN(Cc3ccc(OCC(F)(F)F)nc3)C2)C1 [compound 963] | 3.95 nM
O=C(N1CC(Oc2cccc(C3CC3)c2F)C1)N1CC2(CC(c3nnc(C4(O)CC4)[nH]3)C2)C1 [compound 322] | 11.7 nM
O=C(N1CC2(CC(Cn3cnc(C(F)(F)F)c3)C2)C1)N1CC2(CC(c3nnc(C4(O)CC4)[nH]3)C2)C1 [compound 64] | 37.9 nM
CS(=O)(=O)c1ccc(COC2CCN(C(=O)N3CC4(CC(c5nc(C6(O)CC6)n[nH]5)C4)C3)CC2)c(Cl)c1 [Example 918, [4-(2-chloro-4-mesyl-benzyl)oxypiperidino]-[6-[3-(1-hydroxycyclopropyl)-1H-1,2,4-triazol-5-yl]-2-azaspiro[3.3]heptan-2-yl]methanone] | 964 nM
Cc1sc(-c2ccc(C3CN(C(=O)N4CC5(CC(c6nnc(C7CC7)[nH]6)C5)C4)C3)cc2)nc1C(C)O (stereo not drawn) [Example 840, [6-(5-cyclopropyl-4H-1,2,4-triazol-3-yl)-2-azaspiro[3.3]heptan-2-yl]-[3-[4-[4-(1-hydroxyethyl)-5-methyl-thiazol-2-yl]phenyl]azetidin-1-yl]methanone] | 2.91 nM
O=C(N1CC(c2ccc([C@H]3C[C@H](C(F)(F)F)C3)nc2)C1)N1CC2(CC(c3nnc(C4CC4)[nH]3)C2)C1 [compound 300] | 1 nM
CCNC(=O)c1cc(Cl)ccc1C12CC(C3CN(C(=O)N4CC5(CC(c6nnc(C7CC7)[nH]6)C5)C4)C3)(C1)C2 [compound 767] | 4.07 nM

Structure (SMILES) | IC50
CS(=O)(=O)c1cc(C(F)(F)F)ccc1C1CC2(C1)CN(C(=O)N1CC3(CC(c4nnc(C5CC5)[nH]4)C3)C1)C2 [compound 803] | 1.39 nM
O=C(N1CC(C23CC(Cc4ccc(C(F)(F)F)nc4)(C2)C3)C1)N1CC2(CC(c3nc(C4CC4)n[nH]3)C2)C1 [compound 866] | 19.1 nM
O=C(N1CC2(CC(NS(=O)(=O)c3cccc(C(F)(F)F)c3)C2)C1)N1CC2(CC(c3nnc(C4CC4)[nH]3)C2)C1 [compound 56] | 0.74 nM
O=C(N1CC(c2cnc(C3CC4(CCC4)C3)cn2)C1)N1CC2(CC(c3nnc(C4CC4)[nH]3)C2)C1 [compound 286] | 0.48 nM
O=C(N1CC2(CC(Cc3ccc4c(C(F)(F)F)cn(CCO)c4n3)C2)C1)N1CC2(CC(c3nc(C4CC4)n[nH]3)C2)C1 [Example 858] | 0.02 nM
O=C(N1CC2(CC(Cc3nc(C(F)(F)F)cs3)C2)C1)N1CC2(CC(c3nc(C4CC4)n[nH]3)C2)C1 [compound 704] | 0.3 nM
CP(C)(=O)c1cc(CC2CC3(C2)CN(C(=O)N2CC4(CC(c5nnc(C6CC6)[nH]5)C4)C2)C3)cc(C(F)(F)F)c1 [compound 884] | 1.47 nM
N=S(=O)(c1cccc(CC2CC3(C2)CN(C(=O)N2CC4(CC(c5nc(C6CC(F)(F)C6)n[nH]5)C4)C2)C3)c1)C(F)(F)F (stereo not drawn) [compound 657] | 17.2 nM
O=C(N1CC(c2ccc(C3(S(=O)(=O)C(F)(F)F)CC3)cc2)C1)N1CC2(CC(c3nc(C4CC4)n[nH]3)C2)C1 [compound 968] | 0.05 nM
O=C(N1CC(C23CC(c4cccc(OC(F)(F)F)c4)(C2)C3)C1)N1CC2(CC(c3nc(C4CC4)n[nH]3)C2)C1 [compound 459] | 0.02 nM
O=C(N1CCC(C23CC(c4nnc(C5(C(F)(F)F)CC5)o4)(C2)C3)CC1)N1CC2(CC(c3nc(C4CC4)n[nH]3)C2)C1 [compound 418] | 192 nM
N=S(=O)(c1cccc(OC2CC3(C2)CN(C(=O)N2CC4(CC(c5nc(C6CC6)n[nH]5)C4)C2)C3)c1)C(F)(F)F (stereo not drawn) [compound 848] | 0.67 nM
CS(=O)(=O)c1cc(F)cc(CC2CC3(C2)CN(C(=O)N2CC4(CC(c5nnc(C6CC6)[nH]5)C4)C2)C3)c1 [compound 18] | 0.3 nM
O=C(N1CC2(CC(c3nc(C4CC4)n[nH]3)C2)C1)N1CC2(CN(Cc3cc(C4CCC4)[nH]n3)C2)C1 [compound 614] | 5.49 nM
CC(C)(C)Cc1nnc(C23CC(C4CN(C(=O)N5CC6(CC(c7nc(C8COC8)n[nH]7)C6)C5)C4)(C2)C3)s1 [compound 800] | 554 nM
NS(=O)(=O)c1ccc(C2CN(C(=O)N3CC4(CC(c5nnc(C6CC6)[nH]5)C4)C3)C2)cc1 [compound 380] | 64.2 nM
O=C(N1CC(c2ccc(N3CCC(O)(C(F)(F)F)C3)nc2)C1)N1CC2(CC(c3nnc(C4CC4)[nH]3)C2)C1 (single isomer, unassigned) [compound 271] | 2.73 nM
CS(=O)(=O)c1ccc(CC2CCC3(C2)CN(C(=O)N2CC4(CC(c5nnc(C6CC6)[nH]5)C4)C2)C3)cc1 (stereo not drawn) [compound 77] | 0.69 nM
O=C(N1CC(C23CC(c4ccc(F)cc4)(C2)C3)C1)N1CC2(CC(c3nc(C4(O)CC4)n[nH]3)C2)C1 [compound 674] | 8.08 nM
Cc1c(C(F)(F)F)n[nH]c1CN1CC2(C1)CN(C(=O)N1CC3(CC(c4nnc(C5CC5)[nH]4)C3)C1)C2 [compound 874] | 2.8 nM
N#Cc1cc(C(F)(F)F)ccc1CC1CC2(C1)CN(C(=O)N1CC3(CC(c4nnc(C5CC5)[nH]4)C3)C1)C2 [compound 556] | 0.45 nM
N=S(=O)(c1cccc(C(F)(F)F)c1)C1CCC2(CC1)CN(C(=O)N1CC3(CC(c4nc(C5CC5)n[nH]4)C3)C1)C2 (stereo not drawn) [Example 456] | 8.88 nM
O=C(N1CC2(CC(Cc3cccc(S(=O)(=O)C(F)(F)F)c3)C2)C1)N1CC2(CC(c3nc(C4(F)CC4)n[nH]3)C2)C1 [compound 627] | 0.05 nM
O=C(N1CC2(CC(Cn3cncc3C3(C(F)(F)F)CC3)C2)C1)N1CC2(CC(c3nc(C4CC4)n[nH]3)C2)C1 [compound 964] | 0.44 nM
O=C(N1CC2(CC(c3nnc(C4CC4)[nH]3)C2)C1)N1CC2(C1)CN(S(=O)(=O)c1ccccc1C(F)(F)F)C2 [compound 96] | 2.94 nM
